Test [1] relates to cancer cells with EGFRvIII expression. Conditions: literature reports; cited from earlier work.
Test [2] relates to non-small cell lung cancer. Conditions: NSCLC patients with activating mutations in the EGFR tyrosine kinase domain; cited from earlier work.
Another test concerns NIH 3T3 cells. Kind of test: Western blot of phosphorylation of GFP-tagged EGFRΔ[…] versus WT-EGFR in NIH 3T3 cells. The format is cell-based. Conditions: no ligand, FIG. 7A. The text has this:
Dafna Bar-Sagi). Then, we subcloned the novel extracellular deletion mutant Δ[…] into this vector. […]
On the technique in general: In western blotting, separated proteins are transferred to a membrane and probed.

In a further test the test system is SY5Y. Description: IP-western of phosphorylation status of GFP-tagged EGFR mutants in SY5Y cells. Format: cell-based, human. Particulars: anti-GFP IP, higher than EGFRvIII, FIG. 7D. The text has this: Then, we prepared RNA and protein lysates from the transfected cells. We confirmed the identity of the lysates by RT-PCR (FIG. 7C). Next, we evaluated the phosphorylation status of both mutants. Because SY5Y cells expressed endogenous WT-EGFR (21, 22), we used anti-GFP antibody to immunoprecipitate the mutant EGFR polypeptides.

For the molecule `C#Cc1cccc(Nc2ncnc3cc(OCCOC)c(OCCOC)cc23)c1` [erlotinib], the “sensitivity of cancer cells with EGFRvIII expression” value in test [1] was “not as sensitive”.

For `COc1cc2ncnc(Nc3ccc(F)c(Cl)c3)c2cc1OCCCN1CCOCC1` [gefitinib], in test [2], the patient response result is reported as “dramatic response”.

For “EGFRΔ768: truncated EGFR, in-frame deletion from nucleotide 102 of exon 2 to nucleotide 869 of exon 7”, the “phosphorylation in the absence of ligand (versus WT-EGFR)” value in the test with NIH 3T3 cells is on record as “constitutively active”. Besides, the “autophosphorylation level, difference versus EGFRvIII” value in the test on SY5Y is listed as approximately 40%.
